Laboratory results reported in patent US10226458B2, “Pharmaceutical compositions comprising sorbitan esters” (Alkermes Pharma Ireland Limited, priority 2011, dated 2019).

Legend:
[1] = Solubility of Compound A-7 in vehicles containing varying amounts of sorbitan monolaurate; assay type: physicochemical; conditions: 10 mM phosphate buffer, 0.2% polysorbate 20, saline, 0%-0.75% sorbitan laurate, 25° C., HPLC (FIG. 9)
Experimental: • a. Injection vehicles comprised of ca. 10 mM phosphate buffer, 0.2% polysorbate 20, saline and various amount of sorbitan laurate (0%-0.75%) were prepared. The injection vehicles were stirred for 4 hours before preparing suspension preparation. • b. Approximately 1.25±0.05 g of Compound A-7 were added to 15 mL injection vehicles in a 20-mL glass scintillation vial with a ⅞″× 5/16″ stirring bar. The suspension was vigorously stirred on Chemglass CG-1990-T-50 hotplate at 25° C. which was controlled using a thermal sensor. • c. At each time point, a total of 3 mL of -mixed suspension were transferred into two 1.5-mL centrifuge tubes using a plastic pipette. The tubes were centrifuged at 14,000 rpm for 4 minutes. The supernatant of both tubes were combined and centrifuged again at 14,000 rpm for 4 minutes. The HPLC sample was then prepared with final (2nd) centrifuged supernatant by diluting 0.4 mL supernatant with 0.6 mL THF. • d. Concentration of dissolved Compound A-7 was determined using HPLC.

[2] = Previous experiments on wetting of Compound A-7 solids load by polysorbate 20; assay type: physicochemical; conditions: 25.6 wt % solids load of Compound A-7 bulk recrystallized drug substance
[3] = cited from earlier work
rats = assay: Subcutaneous injection site reaction model; conditions: single SC injection, Day 10, formulations comprising sorbitan laurate compared to formulations with no sorbitan laurate (FIGS. 8A, 8B)
[4] = Wettability characterization: free energy of immersion and spreading coefficient of Compound A-7 in injection vehicles; assay type: physicochemical; conditions: recrystallized Compound A-7 against the named injection vehicle formulation; predicted from vehicle surface tension and solid surface energy
Excerpt: A surface energy measurement methodology was developed that would allow for facile screening of formulation candidates with minimal use of drug substance. These experiments utilize the surface tension of the injection vehicle and surface energy of the solid to predict the immersional free energy and spreading coefficient between the liquid and the solid.
A force-balance tensiometer (Attension Sigma® 701) with a platinum Wilhelmy plate was used to measure the surface energy (tension) of the vehicle of interest. This was done using a 30 mL sample of the vehicle of interest and taking 8 individual surface tension measurements. The first 3 measurements were discarded as being non-representative of equilibrium conditions, and the remaining measurements were averaged to give the surface tension value. […] To then obtain the polar and non-polar (dispersive) components of the surface tension, a polytetrafluoroethylene (PTFE) contact angle standard (Rame-Hart) was affixed to the tensiometer and the dynamic contact angle was measured. […]
With the total surface tension of the liquid, and the contact angle of the liquid on a non-polar surface with known surface energy attributes, the polar and dispersive components of the surface tension were calculated. […]

CCCCCCCCCCCC(=O)OCN1C(=O)CCc2ccc(OCCCCN3CCN(c4cccc(Cl)c4Cl)CC3)cc21 [Compound A-7, (7-(4-(4-(2,3-dichlorophenyl)piperazin-1-yl)butoxy)-2-oxo-3,4-dihydroquinolin-1(2H)-yl)methyl dodecanoate]
solubility (concentration of dissolved Compound A-7) [1]: decreases solubility up to 0.5 wt % SML with solubility increasing again above 0.5 wt. % | polysorbate 20 required to adequately wet the drug substance [2]: at least 0.1%

O=C1CCc2ccc(OCCCCN3CCN(c4cccc(Cl)c4Cl)CC3)cc2N1 [aripiprazole (free base), 7-{4-[4-(2,3-dichlorophenyl)-1-piperazinyl]butoxy}-3,4-dihydro-2(1H)-quinolinone]
tissue irritation ([3]; following IM and SC injection): unacceptable (moderate to severe) tissue irritation | pharmacokinetic profile ([3]; long-acting injections): prolonged pharmacokinetic profile | injection site reaction (weight of excised ISR) (rats): significant reduction in injection site reaction

Cc1cc2c(s1)Nc1ccccc1N=C2N1CCN(C)CC1.O.O=C(O)c1cc2ccccc2c(Cc2c(O)c(C(=O)O)cc3ccccc23)c1O [olanzapine pamoate]
injection site reaction (weight of excised ISR) (rats): significant reduction in injection site reaction

Water
FREE ENERGY OF IMMERSION [4]: 10 mN/m | SPREADING COEFFICIENT [4]: −83.3 mN/m
